Values of other authors as cited in patent US9168282B2, “Method for treating neuronal damage and neurological diseases” (priority 2009, dated 2015).

Key:
herpes zoster patients [1] = conditions: 500 mg of Famciclovir three times per day, 7 days, meta-analysis data (Can Fam Physician 2008)
herpes zoster patients [2] = conditions: Famciclovir 500 mg three times per day, 7 days, meta-analysis data (Can Fam Physician 2008)

For `CC(=O)OCC(CCn1cnc2cnc(N)nc21)COC(C)=O` [Famciclovir], the “Median of time required for generating scab over the whole skin lesion” value (herpes zoster patients [1]) is listed as 5 days and the “Median of time required for relieving pain” value (herpes zoster patients [2]) is listed as 20 days.
